PMC7139731, “Synthesis, Anticancer Evaluation and Structure-Activity Analysis of Novel (E)- 5-(2-Arylvinyl)-1,3,4-oxadiazol-2-yl)benzenesulfonamides” (International Journal of Molecular Sciences, 2020)
Read-outs that look alike come from different tables or passages of the source.

What was measured:
[1] = system: HaCaT noncancerous keratinocyte cell line; assay: MTT cell viability assay, 72 h, HaCaT; type: cell-based; settings: for IC50: Homo sapiens, HaCaT, MTT assay, 72 h incubation, mean ± SD
Method: (§1) Compounds 7–36 and 47–54 were tested regarding their effect on growth of three human cancer cell lines: colon cancer HCT-116, breast cancer MCF-7 and cervical cancer HeLa, as well as on noncancerous keratinocyte cell line HaCaT. Cell viability was measured with MTT assay after 72 h of incubation with tested compound in five concentration 1–100 μM. The MTT test enables us to quantify the living cells by measuring the activity of mitochondrial enzymes, enables reducing tetrazolium dye MTT to purple formazan. In this manner, IC50—molar concentration [µM] that inhibits 50% net cell growth—was determined (Table 1 and Table 2).
(§2) All chemicals, if not stated otherwise, were obtained from Sigma-Aldrich (St. Louis, MO, USA). The MCF-7, HeLa and HaCaT cell lines were purchased from Cell Lines Services (Eppelheim, Germany), the HCT-116 cell line were obtained from ATCC (ATCC-No: CCL-247). Cells were cultured in Dulbecco’s modified Eagle’s medium (DMEM) supplemented with 10% fetal bovine serum, 2 mM glutamine, 100 units/mL penicillin, and 100 μg/mL streptomycin. Cultures were maintained in a humidified atmosphere with 5% CO2 at 37 °C in an incubator (HeraCell, Heraeus, Langenselbold, Germany). Cell viability was determined using the MTT [3-(4,5-dimethylthiazol-2-yl)-2,5-diphenyl-tetrazolium bromide] assay. Stock solutions of the studied compounds were obtained in 100% DMSO. […] Cells were seeded in 96-well plates at a density of 5 × 10^3 cells/well and treated for 72 h with the examined compounds in the concentration range 1–100 μM (1, 10, 25, 50 and 100 μM). Following treatment, MTT (0.5 mg/mL) was added to the medium and cells were further incubated for 2 h at 37 °C. Cells were lysed with DMSO and the absorbance of the formazan solution was measured at 550 nm with a plate reader Victor 1420 multilabel counter, (PerkinElmer, Inc. Waltham, MA USA). […] The experiment was performed in triplicate. Values are expressed as the mean ± SD of at least three independent experiments

[2] = system: HaCaT noncancerous keratinocyte cell line; design: method as in PMID 28364658; settings: MTT assay, 72 h incubation; compounds marked [18] ref 18; cited from earlier work
[3] = system: HCT-116 cells (colon cancer); assay: MTT cell viability assay, 72 h, HCT-116; type: cell-based, human; settings: for IC50: MTT assay, 72 h incubation, mean ± SD
Method: as §1, §2

[4] = system: MCF-7 cells (breast cancer); assay: MTT cell viability assay, 72 h, MCF-7; type: cell-based, human; settings: Homo sapiens, MCF7, 72 h, MTT assay, 72 h incubation, mean ± SD
Method: as §1, §2

[5] = system: HeLa cells (cervical cancer); assay: MTT cell viability assay, 72 h, HeLa; type: cell-based, human; settings: Homo sapiens, HeLa, 72 h, MTT assay, 72 h incubation, mean ± SD
Method: as §1, §2

Compound: NS(=O)(=O)c1cc(-c2nnc(/C=C/c3ccccc3)o2)c(Cl)cc1SCc1ccccc1 [Compound 8]
- activity against HaCaT compared with cancer lines ([1]; in words): at the same level as against cancer lines
- IC50 [2]: 20 ± 1 µM

Compound: NS(=O)(=O)c1cc(-c2nnc(/C=C/c3c(Cl)cccc3Cl)o2)c(Cl)cc1SCc1ccccc1 [Compound 14]
- IC50 [2]: 160 ± 2 µM

Compound: NS(=O)(=O)c1cc(-c2nnc(/C=C/c3ccc(Br)cc3)o2)c(Cl)cc1SCc1ccccc1 [Compound 16]
- IC50 [2]: 31 ± 1 µM

Compound: NS(=O)(=O)c1cc(-c2nnc(/C=C/c3ccccn3)o2)c(Cl)cc1SCc1ccccc1 [Compound 28, (E)-2-(Benzylthio)-4-chloro-5-(5-(2-(pyridin-2-yl)vinyl)-1,3,4-oxadiazol-2-yl)benzenesulfonamide]
- IC50 ([3]; Homo sapiens, HCT-116, 72 h): 25 ± 1 µM
- IC50 [4]: 115 ± 3 µM
- IC50 [5]: 130 ± 6 µM
- IC50 [1]: 140 ± 10 µM
- melting point: 254 to 257 °C (dec.)

Compound: NS(=O)(=O)c1cc(-c2nnc(/C=C/c3ccc([N+](=O)[O-])s3)o2)c(Cl)cc1SCc1ccccc1 [Compound 32, (E)-2-(Benzylthio)-4-chloro-5-(5-(2-(5-nitrothiophen-2-yl)vinyl)-1,3,4-oxadiazol-2-yl)benzenesulfonamide]
- IC50 ([3]; Homo sapiens, HCT-116, 72 h): 17 ± 1 µM
- IC50 [4]: 55 ± 3 µM
- IC50 [5]: 58 ± 2 µM
- IC50 [1]: 57 ± 1 µM

Compound: NS(=O)(=O)c1cc(-c2nnc(/C=C/c3ccco3)o2)c(Cl)cc1Cl [Compound 33, (E)-2,4-Dichloro-5-(5-(2-(furan-2-yl)vinyl)-1,3,4-oxadiazol-2-yl)benzenesulfonamide]
- IC50 ([3]; Homo sapiens, HCT-116, 72 h): 33 ± 1 µM
- IC50 [4]: 170 ± 9 µM
- IC50 [5]: 210 ± 8 µM
- IC50 [1]: 200 ± 12 µM

Compound: NS(=O)(=O)c1cc(-c2nnc(/C=C/c3ccco3)o2)c(Cl)cc1SCc1ccccc1 [Compound 34, (E)-2-(Benzylthio)-4-chloro-5-(5-(2-(furan-2-yl)vinyl)-1,3,4-oxadiazol-2-yl)benzenesulfonamide]
- IC50 ([3]; Homo sapiens, HCT-116, 72 h): 27.8 ± 0.3 µM
- IC50 [4]: 62 ± 1 µM
- IC50 [5]: 85 ± 3 µM
- IC50 [1]: 91 ± 3 µM

Compound: NS(=O)(=O)c1cc(-c2nnc(/C=C/c3ccc([N+](=O)[O-])o3)o2)c(Cl)cc1SCc1ccccc1 [Compound 35, (E)-2-(Benzylthio)-4-chloro-5-(5-(2-(5-nitrofuran-2-yl)vinyl)-1,3,4-oxadiazol-2-yl)benzenesulfonamide]
- IC50 ([3]; Homo sapiens, HCT-116, 72 h): 4 µM
- IC50 [3]: 4.1 ± 0.2 µM
- times more active against HCT-116 than HaCaT ([3]; selectivity HCT-116 vs HaCaT): 22 times
- times more active against HCT-116 than HeLa ([3]; selectivity HCT-116 vs HeLa): 17 times
- times more active against HCT-116 than MCF-7 ([3]; selectivity HCT-116 vs MCF-7): 37 times
- IC50 [4]: 150 ± 8 µM
- IC50 [5]: 69 ± 3 µM
- IC50 [1]: 87 ± 4 µM
- selectivity index SI (IC50 for HaCaT cell line/IC50 for cancerous cell line) ([1]; cancer line not given, active derivatives (IC50 for cancer line ≤ 25 µM)): 22

Compound: NS(=O)(=O)c1cc(-c2nnc(/C=C/c3ccc[nH]3)o2)c(Cl)cc1Cl [Compound 36, (E)-5-(5-(2-(1H-Pyrrol-2-yl)vinyl)-1,3,4-oxadiazol-2-yl)-2,4-dichlorobenzenesulfonamide]
- IC50 ([3]; Homo sapiens, HCT-116, 72 h): 39 ± 1 µM
- IC50 [4]: 40 ± 1 µM
- IC50 [5]: 73 ± 3 µM
- IC50 [1]: 98 ± 4 µM

Compound: NS(=O)(=O)c1ccc(-c2nnc(/C=C/c3ccc(Cl)cc3)o2)cc1 [Compound 48, (E)-4-(5-(4-chlorostyryl)-1,3,4-oxadiazol-2-yl)benzenesulfonamide]
- IC50 ([3]; Homo sapiens, HCT-116, 72 h): 105 ± 5 µM
- IC50 [4]: 76 ± 4 µM
- IC50 [5]: 25 ± 3 µM
- IC50 [1]: 95 ± 4 µM

Compound: N#Cc1ccc(/C=C/c2nnc(-c3ccc(S(N)(=O)=O)cc3)o2)cc1 [Compound 49, (E)-4-(5-(4-Cyanostyryl)-1,3,4-oxadiazol-2-yl)benzenesulfonamide]
- IC50 ([3]; Homo sapiens, HCT-116, 72 h): 32 ± 2 µM
- IC50 [4]: 75 ± 4 µM
- IC50 [5]: 99 ± 3 µM
- IC50 [1]: 98 ± 4 µM
